Test results reported in patent US12708673B2, “Methods and compositions related to peptides and proteins with c-terminal elements” (Sanford Burnham Prebys Medical Discovery Institute, priority 2008, dated 2026).
Entries after “also recorded” stand apart in the source; their conditions may differ.

Assays:
cells = experiment: Cell internalization of iRGD compared with other RGD peptides; type: cell-based
pancreatic tumors = experiment: Tumor homing of intravenously injected fluorescamine-labeled iRGD peptide in PDAC mouse; type: in vivo; details: intravenous, 4.5 hrs circulation
Procedure: Approximately 200 μg of fluorescamine-labeled iRGD peptide was injected into a pancreatic ductal adenocarcinoma (PDAC) mouse through the tail vein, and was allowed to circulate for 4.5 hrs. The organs were harvested and observed under UV light (upper panel). […] T7 phage displaying iRGD peptides (main panel) or CG7C control peptides (right upper window) were incubated with PPC1 cells cultured on collagen-I coated cover slips for 2 hours at 37° C., stained with anti T7 antibody and a plasma membrane marker, and imaged by a confocal microscope.

[1] = system: spontaneous pancreatic ductal adenocarcinoma; experiment: Spreading of intravenously injected phage into tumor tissue of transgenic mice bearing pancreatic ductal adenocarcinoma; type: in vivo, mouse; details: 15 min circulation
Text: The mice were than perfused with PBS containing 1% BSA, and the tumors were harvested. Cryosections of the tumors were stained with an anti-T7 phage antibody, an anti CD31 antibody, and DAPI. […] Staining is denoted by the bright coloring in both panels of FIG. 9.

PPC-1 cells [2] = experiment: T7 phage internalization into PPC-1 (PPC1) cells at 37° C. (acid wash and titration, or anti-T7 staining and confocal imaging); type: cell-based, human
Procedure: (§1) FIG. 2A: Binding of T7 phage to prostate cancer cells depends on the display of a C-terminal arginine on the phage particles. PPC1 cells were incubated with T7 bacteriophage displaying derivatives of the G7 (upper graph) or RPARPAR peptide (SEQ ID NO: 2) (lower graph) at 4° C., and the bound phage was quantified by plaque assay. Binding is expressed in fold over of the non-binding G7 control phage. FIG. 2B: Phage displaying C-terminal arginine is internalized into cultured PPC1 cells (arrow, nuclear internalization; arrowhead, cytoplasmic internalization). A panel of T7 phage clones were incubated at 37° C. with PPC1 cells grown on collagen-coated coverslips, stained with anti T7 antibody and imaged by confocal microscopy.
(§2) Phage display. For in vivo phage display, mice were injected intravenously with 10^10 plaque-forming units (pfu) of T7 phage followed by perfusion of the circulatory system and determination of the bound phage in target organs by titration. For cell binding studies on cultured cells (in vitro display) and organ-derived cell suspensions (ex vivo display), the cells were incubated with 10^9 pfu of phage at 4° C., washed, lysed, and quantified by titration. Incubation at 37° C. followed by low pH wash (glycine-HCl, pH 2.5) was used to assess the amount of internalized phage.
(§3) For biopanning and phage binding studies (Hoffman, J. A. et al., 2004), cultured cells were grown to confluence and harvested with trypsin and mouse organs were dissociated using Medimachine (BD Biosciences, San Jose, CA). To measure phage binding, 10^6 cells in binding buffer (DMEM containing 1% BSA) were incubated with 10^9 pfu/ml of T7 phage for 1 hour at 4° C. The cells were washed 4 times with the binding buffer, lysed in LB bacterial growth medium containing 1% NP-40, and titrated. Phage internalization assays used the same procedure, except that the cells were incubated with the phage at 37° C., and that an acidic buffer (500 mM sodium chloride, 0.1 M glycine, 1% BSA, pH 2.5) was used instead of binding buffer in the second wash.
(§4) Centrifugation on a silicone oil cushion (1.03 g/ml) was used to separate unbound phage from cells during time course experiments. Inhibitors of phage binding and internalization (heparin, chondroitin, glycocalyx removal enzymes, endocytosis inhibitors, free peptides, quantum dots and UV-inactivated phage) were added to the cells 20 minutes prior to incubation with phage. Endocytosis inhibitors used in this study were the following: nystatin (50 μg/ml), genistein (100 μg/ml), chlorpromazine (5 μg/ml), 5-(N-ethyl-N-isopropyl) amiloride (100 μM), wortmannin (10 μM).
Immunofluorescence staining. Cultured cells (2×10^5 cells) were grown in 6-well tissue culture plates on collagen-I coated coverslips (BD Biosciences, San Jose, CA) overnight at 37° C. in 5% CO2, and incubated with 10^8 pfu of T7 phage. The cells were fixed in 4% paraformaldehyde or cold (−20° C.) methanol, and stained with antibodies. Nuclei were stained with DAPI or […]. A polyclonal rabbit anti-T7 antibody was generated in-house as described previously (Laakkonen, P. et al. 2002b), except that an additional phage purification step using […] centrifugation was included. Other primary antibodies used were rat anti-mouse CD31 monoclonal antibody (BD Biosciences), rabbit anti-NRP-1, mouse anti-human Lamp-1, mouse anti-human caveolin (Millipore, Temecula, CA), mouse anti-NRP-1 (Miltenyi Biotec Inc., Auburn, CA), mouse anti-human EEA-1 (BD Biosciences, San Jose, CA). The secondary antibodies, Alexa594 goat antibodies to mouse, rat, and rabbit immunoglobulins and Alexa488 donkey anti-rabbit antibody were from Invitrogen (Carlsbad, CA). Cells and tissue sections were examined by confocal microscopy (Fluoview 500, Olympus America Inc., Center Valley, PA).

NRP-1 = molecular target: T1, NRP-1 (Homo sapiens, UniProt O14786); experiment: Affinity chromatography of PPC-1 tumor extract on immobilized RPARPAR peptide; type: binding; details: 130 kDa protein, MALDI-TOF
T1 construct: from tissue; host or cells: orthotopic PPC-1 prostate tumor xenografts grown in BALB/c nude mice, extracted with n-octyl-beta-D-glucopyranoside
Procedure: (§5) FIGS. 18A-18C show the identification and validation of NRP-1 as the CendR receptor. FIG. 18A: Affinity chromatography of proteins interacting with RPARPAR (SEQ ID NO: 2) peptide. PPC-1 tumor tissue was extracted with a 200 mM glucopyranoside buffer, and the extract was incubated with RPARPAR-coated (SEQ ID NO:2) beads, followed by extensive washes, and elution with 2 mM free RPARPAR (SEQ ID NO:2) peptide. Note appearance of a 130 kDa band, identified by mass spectroscopy as NRP-1, starting in the fraction 3 of the eluate. Upper panel—a silver stained gel, lower panel—an immunoblot with anti-NRP-1 antibody. FIG. 18B: Binding of RPARPAR (SEQ ID NO:2) phage to M21 melanoma cells transiently transfected with wild-type NRP-1 (NRP-1), triple mutant NS346A-E348A-T349A NRP-1 (Mutant NRP-1), or parental pcDNA3.1plasmid (Vector), and to non-transfected M21 cells. FIG. 18C: (c, d), Confocal immunofluorescence images of NRP-1 and RPARPAR (SEQ ID NO:2) T7 phage in PPC-1 cells incubated with phage at 37° C. for 40 minutes (c) and 3 hours (d). The phage and NRP-1 co-localize extensively, but there appears to be a progressive decrease in the overlap (arrowheads in c and d) and appearance of structures positive for the phage only (arrows, d). (e) Immunostaining and confocal imaging of RPARPAR (SEQ ID NO:2) phage and NRP-1 in M21 cells transiently transfected with NRP-1. […]

wild-type NRP-1 = molecular target: T2, wild-type NRP-1 (Homo sapiens, UniProt O14786); experiment: Phage binding and internalization in M21 melanoma cells transiently transfected with wild-type NRP-1; type: cell-based
T2 construct: expressed in transfected cells; host or cells: M21 melanoma cells, transient transfection with lipofectamine; pcDNA3.1(+) construct, gift of Dr. Michael Klagsbrun
Procedure: as §5

PPC-1 cells [3] = experiment: Protease treatment of phage followed by phage binding assay on PPC-1 cells at 4° C.; type: cell-based, human
Procedure: 5×10^8 phage particles were incubated with indicated volumes of 2.5% trypsin at 37° C. for 20 min, followed by incubation of the phage with 1×10^6 PPC1 cells at 4° C. for 3 hours. Binding is expressed as fold over non-binding G7 control phage (the internalization of which was not affected by the trypsin treatment).
10^9 pfu of RPARPARA (SEQ ID NO:3) phage was treated with indicated amounts of trypsin at 37° C. followed by phage binding assay at 4° C. The data are representative of 4 independent binding experiments.
FIGS. 20A-20C show urokinase dependent CendR peptide. FIG. 20A: The design of a uPA-activatable CendR peptide (uCendR). […] Statistical analysis was performed with ANOVA (b); n=3; error bars indicate s.d.; triple asterisk, p<0.001. Scale bars: 20 μm.
as §3
Protease treatment of phage and qdots. 10^9 phage particles or 50 μl of peptide-coated qdots phage were treated with 50 iu of uPA, 25 μg of crystalline trypsin, 50 iu of thrombin, or 25 μg of collagenase type I (all Sigma, St. Louis, Mo).

PPC-1 cells [4] = experiment: T7 phage binding to PPC-1 (PPC1) cells at 4° C., quantified by titration/plaque assay; type: cell-based, human
Procedure: as §1, §2, §3, §4

T1 sequence (O14786 22-923): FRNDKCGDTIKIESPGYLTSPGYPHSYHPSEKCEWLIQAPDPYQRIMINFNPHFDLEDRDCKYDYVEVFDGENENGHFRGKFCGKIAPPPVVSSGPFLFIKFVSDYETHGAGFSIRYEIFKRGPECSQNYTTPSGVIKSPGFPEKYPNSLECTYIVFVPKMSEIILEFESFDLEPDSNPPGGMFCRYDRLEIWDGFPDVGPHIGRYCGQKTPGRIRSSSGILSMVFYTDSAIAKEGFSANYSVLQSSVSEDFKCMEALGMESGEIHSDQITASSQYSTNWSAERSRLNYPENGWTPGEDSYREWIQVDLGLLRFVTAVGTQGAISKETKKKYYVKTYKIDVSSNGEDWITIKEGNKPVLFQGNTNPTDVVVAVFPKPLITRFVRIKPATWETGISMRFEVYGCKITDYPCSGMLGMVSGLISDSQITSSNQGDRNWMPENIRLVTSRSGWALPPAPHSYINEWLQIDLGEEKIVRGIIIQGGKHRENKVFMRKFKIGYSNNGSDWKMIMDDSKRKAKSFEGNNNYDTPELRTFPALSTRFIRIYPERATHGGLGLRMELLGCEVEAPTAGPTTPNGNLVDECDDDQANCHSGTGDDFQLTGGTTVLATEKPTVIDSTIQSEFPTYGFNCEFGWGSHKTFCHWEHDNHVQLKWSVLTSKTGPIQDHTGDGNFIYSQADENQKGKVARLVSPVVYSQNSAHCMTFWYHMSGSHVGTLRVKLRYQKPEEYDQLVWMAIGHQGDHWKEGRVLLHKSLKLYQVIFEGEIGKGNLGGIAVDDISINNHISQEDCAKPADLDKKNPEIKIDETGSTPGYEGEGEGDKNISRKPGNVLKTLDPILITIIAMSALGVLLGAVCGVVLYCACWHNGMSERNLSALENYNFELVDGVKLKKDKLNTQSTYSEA
T2 sequence (O14786 22-923): as above

Substance: CRGDKGPDC [iRGD peptide]
- Internalization into cells relative to other RGD peptides (cells): more strongly internalized into cells than any other RGD peptide
- Tumor homing (pancreatic tumors): strong tumor homing; also recorded: homes to pancreatic tumors

Substance: CRGDKGPDC [iRGD phage]
- Distribution of phage in pancreatic tumor tissue [1]: extensively taken up by the tumor cells forming the pancreatic tumor ducts
- Phage internalization into PPC-1 cells (in words) (PPC-1 cells [2]; 37° C.): internalizes extensively into the tumor cells

Substance: RPARPAR (REAGENT) [RPARPAR peptide]
- Effect of unlabelled peptide in binding buffer on binding and internalization of VEGF-C7, enhanced tuftsin and A7R phage (PPC-1 cells [2]): reduced
- Protein released from immobilized peptide by elution with free RPARPAR peptide (NRP-1): NRP-1

Substance: RPARPARA [RPARPARA phage]
- Phage binding and internalization by M21 cells with forced expression of NRP-1 (wild-type NRP-1): is not internalized
- Increase of phage binding to cells by trypsin treatment of the phage (PPC-1 cells [3]; phage incubated with trypsin at 37° C., binding at 4° C.): more than 100 fold
- Effect of trypsin treatment of phage on binding (in words) (PPC-1 cells [3]; trypsin): restored
- Phage binding to PPC-1 cells (in words) (PPC-1 cells [4]; 4° C.): abolished the binding
- Cell binding, fold over G7-displaying phage (PPC-1 cells [4]; PPC1 cells, without trypsin treatment): 2.8 fold
